Data: patent publication US12391726B2, “Ursolic acid morpholine salt” (EMMYON, INC., priority 2017, dated 2025)
Counter-ions that a name gives are not always drawn. Like-named read-outs stand apart in the source and are kept apart here. Marks after values point to notes of the source that are not given here.

Assays:
male C57BL/6 mice [1] = assay: Comparative grip strength testing for ursolic acid and salts thereof (standard chow, 6 weeks); format: in vivo; conditions: for Grip Strength (% Change vs. Control): 6 weeks, mean ± SEM, 12 mice
Excerpt: Weight-matched cohorts of 8-week old male C57BL/6 mice were randomized to receive ad libitum access to either standard chow (control) or standard chow supplemented with either 0.050% ursolic acid, 0.200% ursolic acid, or one of the indicated ursolic acid salts: ursolic acid-ethanolamine salt; ursolic acid-tris(hydroxymethyl)aminomethane salt, hereinafter referred to as ursolic acid-“tris” salt; ursolic acid-lysine salt; ursolic acid-diethanolamine salt; ursolic acid-morpholine salt; or ursolic acid-piperazine salt. The ursolic acid-diethanolamine salt and ursolic acid-morpholine salt were prepared as described above. Ursolic acid was commercially obtained, and was used as a starting material to make the other ursolic acid salts according to techniques analogous to those above and known in the art. The doses of ursolic acid salts were molar-matched to either 0.050% ursolic acid (i.e. 0.057% ursolic acid-ethanolamine salt, 0.063% ursolic acid-tris salt, 0.066% ursolic acid-lysine salt, 0.059% ursolic acid-morpholine salt, and 0.059% ursolic acid-piperazine salt) or to 0.048% ursolic acid (i.e. 0.060% ursolic acid-diethanolamine salt). After mice had consumed these diets for 6 weeks, in vivo grip strength was measured.

C2C12 myotubes = assay: Total cellular protein in cultured C2C12 myotubes (in vitro model of skeletal muscle); format: cell-based; conditions: 48 hours, 10% FBS, normalized to vehicle-treated, dose-dependent
Procedure: A direct, side-by-side comparison of ursolic acid and ursolic acid-morpholine salt was performed in an in vitro model of skeletal muscle. C2C12 myoblasts were cultured and fully differentiated into post-mitotic skeletal myotubes, then incubated for 48 hours with 10% fetal bovine serum (FBS) plus the indicated concentrations of ursolic acid or ursolic acid-morpholine salt. Myotubes were then harvested for assessment of total cellular protein, which increases as myotubes undergo hypertrophy. (See Dyle et al., Systems-based discovery of tomatidine as a natural small molecule inhibitor of skeletal muscle atrophy, Journal of Biological Chemistry 289, (2014) 14913-14924.) Total protein in each sample was normalized to the amount of in vehicle-treated myotubes. […] Results are shown in FIG. 6, which is a graph depicting results from the direct, side-by-side comparison of ursolic acid and ursolic acid-morpholine salt in the cultured C2C12 myotubes in vitro model of skeletal muscle.

male C57BL/6 mice [2] = conditions: high-fat chow, 8 weeks, 0.500% Ursolic Acid or 0.059% morpholine salt
Excerpt: Weight-matched cohorts of 8-week old male C57BL/6 mice were randomized to receive ad libitum access to either high-fat chow (control), high-fat chow supplemented with 0.050% ursolic acid, or high-fat chow supplemented with a molar-matched dose of ursolic acid-morpholine salt (0.059%). Just prior to starting these diets, mice were weighed and subjected to body composition analysis by NMR. After mice had consumed the diets for 8 weeks, body weight and body composition were re-assessed, retroperitoneal and epididymal fat pads were dissected and weighed, and skeletal muscles (tibialis anterior, gastrocnemius, soleus, quadriceps and triceps) were dissected and weighed. In each mouse, the total dissected skeletal muscle weight (combined weight of bilateral tibialis anterior, gastrocnemius, soleus, quadriceps and triceps muscles) was normalized to the final body weight. Data are means±SEM from 10 mice per cohort.

male C57BL/6 mice [3] = assay: Direct comparison to molar-matched ursolic acid in obesity-induced glucose intolerance (high-fat chow, 7 weeks); format: in vivo; conditions: 6 h fast, 0.050% ursolic acid or 0.059% morpholine salt, P<0.01
Procedure: Weight-matched cohorts of 8-week old male C57BL/6 mice were randomized to receive ad libitum access to either high-fat chow supplemented with 0.050% ursolic acid, or high-fat chow supplemented with a molar-matched dose of ursolic acid-morpholine salt (0.059%). After mice had consumed the diets for 7 weeks, mice were fasted for 6 hours and then subjected to glucose tolerance testing. […] Data are means±SEM from 10 mice per cohort.

male C57BL/6 mice [4] = assay: Ursolic acid-diethanolamine salt: body weight and composition testing (standard chow, 7 weeks); format: in vivo
Procedure: After mice had consumed these diets for 7 weeks, mice were weighed and body composition was assessed by NMR. Data are means±SEM from 15 mice per cohort. *P<0.05.

[5] = standard chow supplemented, doses molar-matched to 0.050% ursolic acid (0.048% for diethanolamine salt): 0.050% ursolic acid, 0.057% ethanolamine, 0.063% tris, 0.066% lysine, 0.060% diethanolamine, 0.059% morpholine, 0.059% piperazine salt

C1CNCCN1.C[C@H]1[C@H](C)CC[C@]2(C(=O)O)CC[C@]3(C)C(=CC[C@@H]4[C@@]5(C)CC[C@H](O)C(C)(C)[C@@H]5CC[C@]43C)[C@H]12 [Ursolic Acid-Piperazine Salt, ursolic acid-piperazine salt]
Grip Strength (% Change vs. Control) (male C57BL/6 mice [1]; [5]): 3.7 ± 2.5%

CC1CCC2(C(=O)O)CCC3(C)C(=CCC4C5(C)CCC(O)C(C)(C)C5CCC43C)C2C1C.NC(CO)(CO)CO (stereo not drawn) [Ursolic Acid-Tris Salt, ursolic acid-tris(hydroxymethyl)aminomethane salt]
Grip Strength (% Change vs. Control) (male C57BL/6 mice [1]; [5]): 5.2 ± 1.6%

CC1CCC2(C(=O)O)CCC3(C)C(=CCC4C5(C)CCC(O)C(C)(C)C5CCC43C)C2C1C.NCCO (stereo not drawn) [Ursolic Acid-Ethanolamine Salt, ursolic acid-ethanolamine salt]
Grip Strength (% Change vs. Control) (male C57BL/6 mice [1]; [5]): 2.8 ± 1.6%

C[C@H]1[C@H](C)CC[C@]2(C(=O)O)CC[C@]3(C)C(=CC[C@@H]4[C@@]5(C)CC[C@H](O)C(C)(C)C5CC[C@]43C)[C@H]12 (stereo partly drawn) [Ursolic Acid, Ursolic acid]
Grip Strength (% Change vs. Control) (male C57BL/6 mice [1]; [5]): 7.7 ± 1.9%
Grip Strength (% Change vs. Control) (male C57BL/6 mice [1]; standard chow with 0.200% ursolic acid): 9.9 ± 2.2 %
Total cellular protein (FIG. 6) (C2C12 myotubes): significantly increased
Epididymal Fat Pad Wt (male C57BL/6 mice [2]): 2208.6 ± 52.0 ^a mg
Final % Fat (male C57BL/6 mice [2]): 39.8 ± 0.7 ^a %
Final % Lean (male C57BL/6 mice [2]): 50.4 ± 0.5 ^a %
Final Body Wt (male C57BL/6 mice [2]): 40.8 ± 0.5 ^a g
Final Fat Mass (male C57BL/6 mice [2]): 16.3 ± 0.3 ^a g
Final Lean Mass (male C57BL/6 mice [2]): 20.6 ± 0.3 ^a g
Retroperitoneal Fat Pad Wt (male C57BL/6 mice [2]): 986.1 ± 21.8 ^a mg
Skeletal Muscle Wt (mg/g Final Body Wt) (male C57BL/6 mice [2]; total dissected muscle weight normalized to final body weight): 25.5 ± 0.4 ^a mg/g Final Body Wt
Fasting blood glucose (male C57BL/6 mice [3]): 166.3 ± 3.7 mg/dL
Glucose tolerance test area under the curve (AUC) (male C57BL/6 mice [3]): 40,585±1,357

CC1CCC2(C(=O)O)CCC3(C)C(=CCC4C5(C)CCC(O)C(C)(C)C5CCC43C)C2C1C.NCCCCC(N)C(=O)O (stereo not drawn) [Ursolic Acid-Lysine Salt, ursolic acid-lysine salt]
Grip Strength (% Change vs. Control) (male C57BL/6 mice [1]; [5]): 7.2 ± 2.3%

C[C@H]1[C@H](C)CC[C@]2(C(=O)O)CC[C@]3(C)C(=CCC4[C@@]5(C)CC[C@H](O)C(C)(C)C5CC[C@]43C)[C@H]12 (stereo partly drawn) [Ursolic Acid-Diethanolamine Salt, ursolic acid diethanolamine salt]
Final % Fat (male C57BL/6 mice [4]; 0.060% in standard chow): 16.6 ± 2.0%
Final % Lean (male C57BL/6 mice [4]; 0.060% in standard chow): 64.2 ± 1.6%
Final Body Wt (male C57BL/6 mice [4]; 0.060% in standard chow): 31.7 ± 0.5 g
Final Fat Mass (male C57BL/6 mice [4]; 0.060% in standard chow): 5.3 ± 0.7 g
Final Lean Mass (male C57BL/6 mice [4]; 0.060% in standard chow): 20.3 ± 0.4* g
Final % Fat (male C57BL/6 mice [4]; 0.180% in standard chow): 14.1 ± 1.8* %
Final % Lean (male C57BL/6 mice [4]; 0.180% in standard chow): 65.5 ± 1.4* %
Final Body Wt (male C57BL/6 mice [4]; 0.180% in standard chow): 30.7 ± 0.5 g
Final Fat Mass (male C57BL/6 mice [4]; 0.180% in standard chow): 4.4 ± 0.6* g
Final Lean Mass (male C57BL/6 mice [4]; 0.180% in standard chow): 20.0 ± 0.3 g
Lean mass and fat mass (conclusion) (male C57BL/6 mice [4]; conclusion from Table IV, standard chow): increased lean mass and decreased fat mass
Potency and efficacy compared with native ursolic acid and other ursolic acid salts (male C57BL/6 mice [1]; conclusion from Table I grip strength data): more potent and efficacious
Grip Strength (% Change vs. Control) (male C57BL/6 mice [1]; [5]): 11.7 ± 2.5 %
